One data set deals with CLK4 (Homo sapiens, UniProt Q9HAZ1). Description: LanthaScreen binding assay (ThermoFisher SelectScreen). On the set-up: purchased SelectScreen Services (ThermoFisher). From the text: In vitro biochemical assays. Several small molecule assays were outsourced to SelectScreen Services (ThermoFisher) for STK33 and for off-target kinases (data sets are available on demand).
These assays are LanthaScreen (binding assay) and Z’-LYTE (activity assay). Dose-responses were done with at least 5 different concentrations in duplicates, and parameters were optimized by calculations described below and provided with standard errors.
Calculation of Kd values for kinase inhibitors that bind to the ATP pocket of a kinase from LanthaScreen binding data. DynaFit (71) was used to fit complex equilibria where a tracer is displaced by a dilution series of a kinase inhibitor. This method relies on the concentration of inhibitor, as well as the concentration of kinase and tracer, and Kd of the tracer. The latter three parameters are tabulated by ThermoFisher for each kinase in the LanthaScreen assay panel. […]

For the next data set, the system named is male mice. Put plainly: Fertility analysis and reversibility in male mice. It is filed as in vivo. As for the experimental part:
On the basis of molecular modeling, mouse and human STK33 have identical ATP binding pockets (fig. S19), consistent with evolutionary conservation and function of STK33. To determine the consequences of STK33 inhibition in vivo, we evaluated reproductive outcomes in male mice dosed with CDD-2807. […] In protocol 1, adult male mice (n = 6 per cohort) were treated with vehicle control or CDD-2807 at 15 mg kg^−1 intraperitoneally twice per day for 21 days, subsequently housed continuously with fertile female mice of reproductive age (two per male), and then evaluated at day 45 for effects of CDD-2807 on the male reproductive tract (after the first litter was born) or continued to be housed with the females until day 66 after the completion of the 60-day breeding data collection (fig. S21A). In protocol 2, adult male mice (n = 7 per cohort) were treated with vehicle control or CDD-2807 at 50 mg kg^−1 once per day for 21 days, subsequently housed continuously with females (two per male), and then evaluated at later time points (fig. S21B). […] In month 2, litters were born to all females housed with the six control males (2.0 ± 0 litters per male; 7.25 ± 0.17 pups per female per litter) (Fig. 4A). By contrast, no litters were produced by females housed with males who received CDD-2807 (Fig. 4A). For protocol 2 mice, all seven control males sired litters from both females in month 1 (7.29 ± 0.18 pups per litter per female), whereas only one female became pregnant and delivered a single pup from the seven CDD-2807–treated males (50 mg kg^−1 day^−1) (0.07 ± 0.07 pups per litter per female) (Fig. 4B). […] Thus, CDD-2807 delivery in both protocols induced a contraceptive effect. […]
Fertility analysis. Sexually mature male C57/129 hybrid mice were randomly assigned to either the vehicle control treatment or the CDD-2807 treatment groups. Drug formulation and injections were as follows: for protocol 1 mice receiving the 15 mg/kg CDD-2807 twice daily dosing had the compound dissolved in DMSO, which was injected at 5% of the final volume in 10% Captisol and water. For protocol 2 mice receiving a single daily dose of 50 mg/kg CDD-2807, the compound was dissolved in DMSO and injected at 5% in 20% Captisol and water. All injections were administered as i.p. injections, and for the 15 mg/kg CDD-2807 and DMSO control mice, the injections were delivered in the morning and the evening. Mice in the 50 mg/kg dosing received i.p. injections once in the evening. Weights were measured daily prior to drug administration and monitored throughout the entirety of the injection period. Injections were given for 21 days prior to introduction of female mice. During the fertility assessment, males were housed continuously with two C57/129 sexually mature females for 45 days to generate approximately two months of fertility data. During the fertility assessment, the total number of pups born per litter sired by each male were counted and the total number of litters and pups sired per male over the entire trial was calculated. Mean pup number and SEM were used to determine differences in average number of […]
fig. S21. Protocol timelines of mouse breeding and reversibility study. (A) Protocol 1 represents the 15 mg/kg twice per day drug dosing of CDD-2807. Samples were collected at euthanasia on day 45 from half of the male mice, allow ing for the completion of the 30-day breeding data to be collected and to give the male mice sufficient time with their female counterparts to initiate the day 60 breeding data. After completion of the entire 60-day breeding data, protocol 1 mice were then “rested” for 21 days prior to measuring their recovery period where they were housed with females to determine fertility. ( B) Protocol 2 represents the 50 mg/kg per day drug dosing of CDD-2807. Samples were collected at euthanasia on day 63 from half of the male mice; this allowed for the entire completion of the initial breeding data prior to collections. […]

The nature of data set [1]: Metabolic stability assay in liver microsomes (HLM). It is filed as in vitro ADME, human. As for the experimental part: Metabolic stability assay in liver microsomes. The stabilities of CDD-2110, CDD-2211, CDD-2212, CDD-2807, and CDD-3348 in liver microsomes with/without Uridine Diphosphate Glucuronic Acid (UDP-GA, a cofactor of UDP-glucuronosyltransferases) were performed and half-life was calculated as previously reported (36). Briefly, each CDD compound (2.0 μM) was incubated in the mouse or human liver microsomes (0.5 mg protein/mL) at 37°C in 1× PBS fortified with NADPH (1.0 mM) and with/without UDP-GA (2.5 mM). Alamethicin (25 µg/mL) as a pore forming agent was used for the glucuronidation (Table S2A). The samples were collected at specific time-points 0, 30, and 60 min in duplicate. The reactions were terminated by adding equivalent volume of ice-cold methanol (CH3OH) and vortexed. After centrifugation at 15000 g for 10 min, 3.0 μL of the supernatant was analyzed by Thermo TSQ Quantis MS coupled with a Thermo Vanquish UHPLC (San Jose, CA) equipped with a Luna C18 column (1 mm × 50 mm, 1.6 µm, Phenomenex, Torrance, CA). The column temperature was maintained at 40°C. CDD-2807 was monitored under the selected reaction monitoring (SRM) mode coupled with a positive electrospray ionization (ESI) source. The SRM ion pairs were 447→321 for CDD-2807.

Sequence of CLK4 (Q9HAZ1 whole entry): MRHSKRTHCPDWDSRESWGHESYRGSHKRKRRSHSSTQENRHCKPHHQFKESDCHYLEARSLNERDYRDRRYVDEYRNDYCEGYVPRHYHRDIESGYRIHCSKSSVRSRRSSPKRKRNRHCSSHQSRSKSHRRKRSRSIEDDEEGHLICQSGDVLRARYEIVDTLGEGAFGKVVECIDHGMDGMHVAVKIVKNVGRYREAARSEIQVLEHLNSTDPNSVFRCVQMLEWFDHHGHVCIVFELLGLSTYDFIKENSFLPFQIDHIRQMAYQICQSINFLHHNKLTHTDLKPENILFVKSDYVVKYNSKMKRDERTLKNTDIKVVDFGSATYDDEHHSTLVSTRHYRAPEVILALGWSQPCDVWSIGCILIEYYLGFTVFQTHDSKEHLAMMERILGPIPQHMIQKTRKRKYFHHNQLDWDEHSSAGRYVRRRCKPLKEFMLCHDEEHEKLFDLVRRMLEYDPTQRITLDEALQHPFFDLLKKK

`O=C(c1ccc2[nH]nc(C#Cc3ccccc3-c3ccccc3)c2c1)N1CC2(CCCNC2)C1` [CDD-2807] came in with a Kd on CLK4 of 0.9 nM. This compound also had a litters per male with male mice (protocol 1 (15 mg/kg i.p. twice per day), month 1) of 1.0 ± 0.37 litters per male. In addition, the “pups per female per litter” value with male mice (protocol 1, month 1) was 0.92 ± 0.34 pups per female per litter. The “treated males that sired litters” value with male mice (protocol 1, month 1) is “four of the six”. In addition, the “litters produced by females housed with treated males” value in the data set with male mice (protocol 1, month 2) is listed as “no litters”. Further, in the data set with male mice (protocol 1, treatment halted at day 63, 21 days rest, first month of breeding), the “pups per litter per female after recovery” value is 7.67 ± 0.61 pups per litter per female. Besides, in the data set with male mice (protocol 2 (50 mg/kg/day i.p.), month 1), the “pups per litter per female” value was 0.07 ± 0.07 pups per litter per female. The “time to sire first litters after treatment (fertility resumption)” value in the data set with male mice (protocol 2, after completion of treatment) turned out to be 53.5 ± 5.1 days. The litters sired entry in the data set on male mice (protocol 2, month 2) is on record as “did not sire any litters”. Also, the “Metabolic stability in HLM” value in data set [1] (Phase I metabolism) is ~ 10 hours; in data set [1] (Phases I and II metabolism), ~ 6 hours. In addition, the half-life at 2 µM in data set [1] (human, liver microsomes, NADPH with UDP-GA (2.5 mM), alamethicin, read-out: HLM, t1/2, liver microsomes with glucuronidation) came to 6.47 h.
